Data from patent publication US10703777B2, “Miniature protein scaffolds and methods for use thereof” (New York University, priority 2017, dated 2020).
“Also recorded” adds a separate entry of the source.

Key:
Assay type in all cases: physicochemical
[1] = Guanidinium chloride (GnCl) titration monitored by near-UV CD at 280 nm; details: standard aqueous conditions at 25° C.; extrapolated from variable GnCl concentration near-UV CD data (280 nm), 50 μM protein
Description: CD spectra were collected using an Aviv (Lakewood, N.J.) stopped flow CD Spectropolarimeter Model 202SF. The far-UV (190-260 nm) CD spectra were obtained using a 1 mm path length cell and in 10 mM PBS buffer at a pH of 7.5 at 100 μM protein concentrations. The near-UV (245-320 nm) CD spectra were obtained using a 1 cm path length cell and in 10 mM PBS buffer at a pH of 7.5 at 50 μM concentrations. The consensus CD spectra were established as the Gaussian weighted average of 40 scans with evaluation of ellipticity every 0.5 nm, each having an averaging time of 0.5 s. […] Concentrations of protein stock solutions for conversion of millidegrees to mean residue ellipticity (MRE) were determined by UV absorbance at 280 nm using the standard extinction coefficients for the tryptophan (5690 M-1 cm-1), tyrosine (1280M-1 cm-1), and disulfide-bridged cysteine (125M-1 cm-1) chromophores in 6 M GnCl. […]
Secondary and tertiary structure content of the mini-protein was initially evaluated using circular dichroism (CD) spectroscopy (FIG. 4A,B). In the near-UV (260-320 nm) CD spectrum, ellipticity can arise from indole and phenol absorbance bands when tryptophan or tyrosine side chains are present in an asymmetric environment. […]

[2] = Sedimentation equilibrium analysis; details: concentration of 1.8 mM at 4° C.
Description: Sedimentation equilibrium measurements were carried out on a Beckman (Brea, Calif.) XL-A analytical ultracentrifuge equipped with absorption optics and an An-60 Ti rotor. Analysis was conducted at rotor speeds of 45,000 and 48,000 rpm at 4° C. Data were acquired at two wavelengths per rotor speed setting and processed globally for the best fit to a single-species model of absorbance versus radial distance. Solvent density and protein partial specific volume were calculated according to solvent and protein composition, respectively.
The native sequence on which to initiate the mini-protein design was chosen based on two primary criteria. First, the present inventors sought a sequence containing a loop featuring a β-hairpin, which could be nucleated using a D-Pro-Gly motif (2, 7). Most of the loop regions observed in WSXWS motifs are lacking in canonical forms of secondary structure that could be enforced with rational peptide design (FIG. 2). Second, the present inventors wanted a sequence containing three arginine residues on the β-strand portion of the fold composing the cation-π interaction network. The only sequence meeting these two criteria was that of the WSXWS motif found in IL3RB (UniprotID: P32927). […] The apparent molecular mass was within 10% of that calculated for an ideal monomer, with no systematic deviation of the residuals. […]

[3] = Near-UV CD thermal melts monitoring mean residue ellipticity at 280 nm; details: 10 mM PBS buffer pH 7.5, elevated temperatures
Description: FIGS. 6A-6B. Near-UV CD thermal melts for the TrpPlexus cation-π interation network mutants. (6A) Schematic of the cation-π network of TrpPlexus detailing variable amino acid positions 1, 3, and 5 in the mutant sequences. (6B) Near-UV CD thermal melts for TrpPlexus (“RRR”) and each mutant monitoring mean residue ellipticity at 280 nm (50 μM protein, 1 cm path length, 10 mM PBS buffer pH 7.5). Inset compares side-chain functionalities of the arginine (R), lysine (K), and L-citrulline (Cit) residues.
CD spectra were collected using an Aviv (Lakewood, N.J.) stopped flow CD Spectropolarimeter Model 202SF. […] Concentrations of protein stock solutions for conversion of millidegrees to mean residue ellipticity (MRE) were determined by UV absorbance at 280 nm using the standard extinction coefficients for the tryptophan (5690 M-1 cm-1), tyrosine (1280M-1 cm-1), and disulfide-bridged cysteine (125M-1 cm-1) chromophores in 6 M GnCl. […]
To explore the influence of cationic groups on fold stability, mutants were designed that replaced particular guanidinyl (arginine) side chain groups with either amino (lysine) cations or charge-neutral urea (L-citrulline) groups (FIG. 6). The near-UV CD signal monitored at 280 nm provides a metric of relative tertiary structure content (FIG. 6B). […]

ΔG° for folding [1]: approximately −6.7 kcal/mol
oligomeric state by sedimentation equilibrium [2]: monomeric
Substance: RVRVRTSRpGYNGTWSEWS [TrpPlexus]
near-UV CD signal as a function of temperature (thermostability) [3]: slightly increase in strength at elevated temperatures, indicating thermostability; also recorded: weakly sigmoidal transitions to stronger ellipticities at elevated temperatures
